# According to US8188139B2, “Heterocyclic-substituted phenyl methanones” (Hoffman-La Roche Inc., priority 2005, dated 2012):
# Target: T1, mGlyT-1b (Mus musculus, UniProt P28571)
# T1 construct: host or cells: Flp-in-CHO
# T1 sequence (P28571 1-651 isoform P28571-2): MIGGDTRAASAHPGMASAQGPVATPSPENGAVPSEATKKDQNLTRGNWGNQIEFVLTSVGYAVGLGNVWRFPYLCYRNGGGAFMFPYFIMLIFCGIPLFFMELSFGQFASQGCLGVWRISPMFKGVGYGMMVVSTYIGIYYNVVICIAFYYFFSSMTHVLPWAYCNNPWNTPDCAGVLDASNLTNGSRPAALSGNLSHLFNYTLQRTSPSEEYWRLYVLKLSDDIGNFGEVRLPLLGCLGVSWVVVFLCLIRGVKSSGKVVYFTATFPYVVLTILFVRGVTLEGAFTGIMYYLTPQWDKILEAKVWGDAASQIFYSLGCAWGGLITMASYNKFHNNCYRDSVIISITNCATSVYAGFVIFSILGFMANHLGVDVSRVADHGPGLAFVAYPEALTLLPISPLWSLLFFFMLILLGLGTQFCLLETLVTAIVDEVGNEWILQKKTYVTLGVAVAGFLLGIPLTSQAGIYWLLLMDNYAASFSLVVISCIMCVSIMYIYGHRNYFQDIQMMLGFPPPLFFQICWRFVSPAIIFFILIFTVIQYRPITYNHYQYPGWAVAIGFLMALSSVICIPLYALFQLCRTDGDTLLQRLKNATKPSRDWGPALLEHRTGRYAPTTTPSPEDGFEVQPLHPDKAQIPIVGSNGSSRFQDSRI
# Experiment: Glycine uptake inhibition assay (mGlyT-1b)
# Format: cell-based
# Details: inhibition of [3H]-glycine uptake in Flp-in-CHO cells transfected with mGlyT-1b cDNA; 20 min preincubation at 22° C.; read-out: IC50 (μM) at GlyT-1
# Method: DMEM complete medium: Nutrient mixture F-12 (Gibco Life-technologies), fetal bovine serum (FBS) 5%, (Gibco life technologies), Penicillin/Streptomycin1% (Gibco life technologies), Hygromycin 0.6 mg/ml (Gibco life technologies), Glutamine 1 mM Gibco life technologies)
# Uptake buffer (UB): 150 mM NaCl, 10 mM Hepes-Tris, pH 7.4, 1 mM CaCl2, 2.5 mM KCl, 2.5 mM MgSO4, 10 mM (+) D-glucose.
# Flp-in™-CHO (Invitrogen Cat n^o R758-07) cells stably transfected with mGlyT1b cDNA.
# Glycine Uptake Inhibition Assay (mGlyT-1b)
# On day 1 mammalian cells, (Flp-in™-CHO), transfected with mGlyT-1b cDNA, were plated at the density of 40,000 cells/well in complete F-12 medium, without hygromycin in 96-well culture plates. On day 2, the medium was aspirated, and the cells were washed twice with uptake buffer (UB). The cells were then incubated for 20 min at 22° C. with either (i) no potential competitor, (ii) 10 mM non-radioactive glycine, (iii) a concentration of a potential inhibitor. A range of concentrations of the potential inhibitor was used to generate data for calculating the concentration of inhibitor resulting in 50% of the effect (e.g. IC50, the concentration of the competitor inhibiting glycine uptake of 50%). A solution was then immediately added containing [^3H]-glycine 60 nM (11-16 Ci/mmol) and 25 μM non-radioactive glycine. The plates were incubated with gentle shaking, and the reaction was stopped by aspiration of the mixture and washing (three times) with ice-cold UB. The cells were lysed with scintillation liquid, shaken 3 hours, and the radioactivity in the cells was counted using a scintillation counter.
row,IC50 [µM],Structure (SMILES)
1,0.033,"CS(=O)(=O)c1ccc(-c2ccccc2)c(C(=O)N2Cc3cc(Cl)c(N4CCOCC4)cc3C2)c1 [Example 252, (5-Chloro-6-morpho-lin-4-yl-1,3-dihydro-isoindol-2-yl)-(4-methanesulfonyl-biphenyl-2-yl)-methanone]"
2,0.017,"CS(=O)(=O)c1ccc(-c2cccc(F)c2)c(C(=O)N2Cc3cc(Cl)c(N4CCOCC4)cc3C2)c1 [Example 255, (5-Chloro-6-morpho-lin-4-yl-1,3-dihydro-isoindol-2-yl)-(3′-fluoro-4-methane-sulfonyl-biphenyl-2-yl)-methanone]"
3,0.032,"CS(=O)(=O)c1ccc(-c2ccc(F)cc2)c(C(=O)N2Cc3cc(Cl)c(N4CCOCC4)cc3C2)c1 [Example 256, (5-Chloro-6-morpho-lin-4-yl-1,3-dihydro-isoindol-2-yl)-(4′-fluoro-4-methane-sulfonyl-biphenyl-2-yl)-methanone]"
4,0.028,"CC(C)Oc1ccc(S(C)(=O)=O)cc1C(=O)N1Cc2ccc(C3CCOCC3)cc2C1 [Example 268, (2-Isopropoxy-5-methanesulfonyl-phenyl)-[5-(tetrahydro-pyran-4-yl)-1,3-dihydro-isoindol-2-yl]-methanone]"
5,0.014,"C[C@H](Oc1ccc(S(C)(=O)=O)cc1C(=O)N1Cc2ccc(C3CCOCC3)cc2C1)C(F)(F)F [Example 269, [5-Methanesulfonyl-2-((S)-2,2,2-trifluoro-1-methyl-ethoxy)-phenyl]-[5-(tetrahydro-pyran-4-yl)-1,3-dihydro-isoindol-2-yl]-methanone]"
6,0.029,"CS(=O)(=O)c1ccc(OCC2CC2)c(C(=O)N2Cc3ccc(C4CCOCC4)cc3C2)c1 [Example 271, (2-Cyclopropyl-methoxy-5-methane-sulfonyl-phenyl)-[5-(tetrahydro-pyran-4-yl)-1,3-dihydro-isoindol-2-yl]-methanone]"
7,0.034,"CS(=O)(=O)c1ccc(OCC2CCC2)c(C(=O)N2Cc3ccc(C4CCOCC4)cc3C2)c1 [Example 272, (2-Cyclobutyl-methoxy-5-methane-sulfonyl-phenyl)-[5-(tetrahydro-pyran-4-yl)-1,3-dihydro-isoindol-2-yl]-methanone]"
8,0.047,"CC(C)(C)COc1ccc(S(C)(=O)=O)cc1C(=O)N1Cc2ccc(C3CCOCC3)cc2C1 [Example 273, [2-(2,2-Dimethyl-propoxy)-5-methane-sulfonyl-phenyl]-[5-(tetrahydro-pyran-4-yl)-1,3-dihydro-isoindol-2-yl]-methanone]"
9,0.016,"CS(=O)(=O)c1ccc(-c2ccc(F)cc2)c(C(=O)N2Cc3ccc(C4CCOCC4)cc3C2)c1 [Example 283, (4′-Fluoro-4-methanesulfonyl-biphenyl-2-yl)-[5-(tetrahydro-pyran-4-yl)-1,3-dihydro-isoindol-2-yl]-methanone]"
10,0.043,"C[C@H](Oc1ccc(S(C)(=O)=O)cc1C(=O)N1Cc2ccc(N3CCCC(F)(F)C3)cc2C1)C(F)(F)F [Example 287, [5-(3,3-Difluoro-piperidin-1-yl)-1,3-dihydro-isoindol-2-yl]-[5-methanesulfonyl-2-((S)-2,2,2-trifluoro-1-methyl-ethoxy)-phenyl]-methanone]"
11,0.022,"C[C@H](Oc1ccc(S(C)(=O)=O)cc1C(=O)N1Cc2ccc(CC(F)(F)F)cc2C1)C(F)(F)F [Example 290, [5-Methanesulfonyl-2-((S)-2,2,2-trifluoro-1-methyl-ethoxy)-phenyl]-[5-(2,2,2-tri-fluoro-ethyl)-1,3-dihydro-isoindol-2-yl]-methanone]"
12,0.017,Cc1cc2c(cc1C1CCOCC1)CN(C(=O)c1cc(S(C)(=O)=O)ccc1O[C@@H](C)C(F)(F)F)C2 [Example 300]
13,0.008,"C[C@H](Oc1ccc(S(C)(=O)=O)cc1C(=O)N1Cc2ccc(C3CCOC3)cc2C1)C(F)(F)F (stereo partly drawn) [Example 304, [5-Methanesulfonyl-2-((S)-2,2,2-trifluoro-1-methyl-ethoxy)-phenyl]-[5-(tetra-hydro-furan-3-yl)-1,3-dihydro-isoindol-2-yl]-methanone]"
14,0.037,"C[C@H](Oc1ccc(S(C)(=O)=O)cc1C(=O)N1Cc2cc(Cl)c(C3CCOCC3)cc2C1)C(F)(F)F [Example 305, [5-Chloro-6-(tetra-hydro-pyran-4-yl)-1,3-dihydro-isoindol-2-yl]-[5-methane-sulfonyl-2-((S)-2,2,2-trifluoro-1-methyl-ethoxy)-phenyl]-methanone]"
15,0.087,"CCc1cc2c(cc1C1CCOCC1)CN(C(=O)c1cc(S(C)(=O)=O)ccc1O[C@@H](C)C(F)(F)F)C2 [Example 306, [5-Ethyl-6-(tetrahydro-pyran-4-yl)-1,3-dihydro-isoindol-2-yl]-[5-methanesulfonyl-2-((S)-2,2,2-trifluoro-1-methyl-ethoxy)-phenyl]-methanone]"
16,0.017,"C[C@H](Oc1ccc(S(C)(=O)=O)cc1C(=O)N1Cc2ccc(-c3ccncc3)cc2C1)C(F)(F)F [Example 315, [5-Methanesulfonyl-2-((S)-2,2,2-trifluoro-1-methyl-ethoxy)-phenyl]-(5-pyridin-4-yl-1,3-dihydro-isoindol-2-yl)-methanone]"
17,0.024,C[C@H](Oc1ccc(S(C)(=O)=O)cc1C(=O)N1Cc2ccc(-c3cccnc3)cc2C1)C(F)(F)F [Example 317]
18,0.034,"C[C@H](Oc1ccc(S(C)(=O)=O)cc1C(=O)N1Cc2cnc(-c3ccc(F)cc3)cc2C1)C(F)(F)F [Example 321, [6-(4-Fluoro-phenyl)-1,3-dihydro-pyrrolo[3,4-c]pyridin-2-yl]-[5-methanesulfonyl-2-((S)-2,2,2-trifluoro-1-methyl-ethoxy)-phenyl]-methanone]"
19,0.012,"C[C@H](Oc1ccc(S(C)(=O)=O)cc1C(=O)N1Cc2cc(-c3ccc(F)cc3)cnc2C1)C(F)(F)F [Example 322, [3-(4-Fluoro-phenyl)-5,7-dihydro-pyrrolo[3,4-b]pyridin-6-yl]-[5-methanesulfonyl-2-((S)-2,2,2-trifluoro-1-methyl-ethoxy)-phenyl]-methanone]"
20,0.013,"C[C@H](Oc1ccc(S(C)(=O)=O)cc1C(=O)N1Cc2ccc(-c3ccccc3)cc2C1)C(F)(F)F [Example 323, [5-Methanesulfonyl-2-((S)-2,2,2-trifluoro-1-methyl-ethoxy)-phenyl]-(5-phenyl-1,3-dihydro-isoindol-2-yl)-methanone]"
21,0.045,"C[C@H](Oc1ccc(S(C)(=O)=O)cc1C(=O)N1Cc2ccc(-c3ccccc3Cl)cc2C1)C(F)(F)F [Example 324, [5-(2-Chloro-phenyl)-1,3-dihydro-isoindol-2-yl]-[5-methanesulfonyl-2-(2,2,2-trifluoro-1-methyl-ethoxy)-phenyl]-methanone]"
22,0.02,"C[C@H](Oc1ccc(S(C)(=O)=O)cc1C(=O)N1Cc2ccc(-c3ccsc3)cc2C1)C(F)(F)F [Example 330, [5-Methanesulfonyl-2-(2,2,2-trifluoro-1-methyl-ethoxy)-phenyl]-(5-thiophen-3-yl-1,3-dihydro-isoindol-2-yl)-methanone]"
23,0.022,"Cc1csc(-c2ccc3c(c2)CN(C(=O)c2cc(S(C)(=O)=O)ccc2O[C@@H](C)C(F)(F)F)C3)c1 [Example 331, [5-Methanesulfonyl-2-(2,2,2-trifluoro-1-methyl-ethoxy)-phenyl]-[5-(4-methyl-thiophen-2-yl)-1,3-dihydro-isoindol-2-yl]-methanone]"

row,Structure (SMILES),IC50 [µM]
1,"CC(C)COc1ccc(S(C)(=O)=O)cc1C(=O)N1Cc2ccc(C3CCOCC3)cc2C1 [Example 270, (2-Isobutoxy-5-methanesulfonyl-phenyl)-[5-(tetrahydro-pyran-4-yl)-1,3-dihydro-isoindol-2-yl]-methanone]",0.035
2,"C[C@H](Oc1ccc(S(C)(=O)=O)cc1C(=O)N1Cc2ccc(N3[C@@H]4CC[C@H]3COC4)cc2C1)C(F)(F)F [Example 295, [5-Methanesulfonyl-2-((S)-2,2,2-trifluoro-1-methyl-ethoxy)-phenyl]-[(1R,5S)-5-(3-oxa-8-aza-bicyclo[3.2.1]oct-8-yl)-1,3-dihydro-isoindol-2-yl]-methanone]",0.04
